Where two headings read alike, the source gives them in different places.
Columns and labels:
[1] = system: stomach ulcer; assay: Antiulcerogenic (stomach-protective) action, pylorus ligature and acetylsalicylic acid; assay type: in vivo, rat (female); details: 4 h, rat, intraduodenally, read-out: ED50 antiulcerogenic action (dose which reduces the mean ulcer index by 50%)
Protocol: (§1) The ulcer provocation is carried out on rats which have been made to fast for 24 hours (female, 180 to 200 g) by ligature of the pylorus (under ether narcosis) and the oral application of 100 mg/10 ml/kg acetylsalicylic acid. The administration of the substances was carried out intraduodenally (2.5 ml/kg) immediately after the ligature of the pylorus. The closure of the wound was carried out by means of Michel clamps. 4 hours after this, the animals were autopsied (while inebriated with ether) by dislocation of the atlas, and the stomach was resected. The stomach, opened longitudinally, is fixed on a cork board and, using a stereomicroscope with an enlargement of 10×, the number and size (=diameter) of any ulcers present were determined. The product of the degree of severity (according to the following scale of points) and the number of ulcers was used as the individual ulcer index.
(§2) As a measure of antiulcerogenic effect the reduction in the mean ulcer index of each treated group, as compared with that of the control group (=100%), was used.

[2] = as above; assay type: in vivo, rat (female); details: in vivo, LD50 mouse i.p. / ED50 rat i.d.
Protocol: as §1, §2

[3] = system: pancreatic secretion; assay: Influence on pancreatic secretion of the narcotized rat; assay type: in vivo, rat (male Sprague-Dawley); details: 0.5 h, narcotized rat, i.d., liquid volume
Description: (§3) Male Sprague-Dawley rats (body weight from 250 to 300 g) are narcotized with 1.2 g/kg urethane i.m. Then the abdominal cavity is opened medially, the bile duct is ligatured shortly above the place where it leads into the duodenum and also near to the hepatic duct, and both sections are catheterized towards the liver.
(§4) As in the rat all the pancreatic ducts lead out into the central section of the bile duct; it is possible in this way to discharge the pancreatic secretion separately from the distal (ligatured) section and the bile separately from the proximal section of the bile duct.
(§5) The quantities of pancreatic juice and bile juice obtained are measured at intervals of 30 minutes over a period from 2 hours before to 3 hours after the intraduodenal (V. jugularis externa) administration of the compounds to be tested (quantity of liquid administered 5 ml/kg).
(§6) The body temperature of the animals is maintained at 36° to 38° C. by means of electric blankets and radiation; the temperature is monitored rectally.
(§7) The liquid volumes of the 30-minute fractions after the administration of the substance are related in each case to the quantity of bile or pancreatic juice secreted prior to the application of the substance (=100%, mean of the last two measurements). The maximum percentage increase in the pancreatic or bile secretion is represented in dependence upon dose, and from this the ED50 is determined by interpolation.

[4] = as above; assay type: in vivo, rat (male Sprague-Dawley); details: in vivo, LD50 mouse i.p. / ED50 rat i.d.
Description: as §3, §4, §5, §6, §7

[5] = Determination of toxicity (lethal action on the mouse after intraperitoneal application); assay type: in vivo; details: in vivo, ip
Protocol: The toxicity investigations are carried out on female NMRI mice (body weight 22 to 26 g). The animals (5 animals per dose) are given food and water ad lib. Different doses of the substances are administered intraperitoneally. The duration of observation is 14 days. The LD50, i.e. the dose at which 50% of the animals die, is determined graphically from the dose/effect curve.

[6] = system: liver damage by CCl4; assay: Antihepatotoxic effect: duration of hexobarbital sleep of the rat after liver damage by CCl4; details: Rattus norvegicus, po; for ED25: read-out: ED25 antihepatotoxic effect (shortens hexobarbital narcosis by 25%); for ED50: read-out: ED50 antihepatotoxic effect (shortens hexobarbital narcosis by 50%)
Protocol: (§8) The compounds to be tested are administered 1 hour prior to the administration of CCl4 orally in a liquid volume of 10 ml/kg.
(§9) The antihepatotoxic effect of the compounds to be tested (sodium salts in aqueous solution) is determined by the reduction of the prolongation of sleeping period caused by the CCl4 liver cell damage in the groups treated, as compared with the prolongation of the sleeping period of the CCl4 control group (=100%). […]

[7] = as above; details: rat, in vivo
Protocol: as §8, §9

[8] = system: glucose formation from lactate and pyruvate in isolated perfused liver; assay: Inhibition of the formation of glucose from lactate and pyruvate in the isolated perfused rat liver; set-up: species or system rat (male Sprague-Dawley); details: for Glucose formation, % change: isolated perfused liver of fasting rats; for ED50 inhibition of formation of glucose from lactate and pyruvate: from 4 concentrations, 0.02 to 1.00 mmol/liter
Protocol: For this purpose young male Sprague-Dawley rats (160 to 200 g) are used. The rats are kept in cages of up to 5 animals in a temperature-controlled room (23° C.) with a fixed day/night rhythm (12/12 hours).
Food is withheld from the animals for from 20 to 22 hours prior to the operation. They are allowed to take water ad lib. The operation and the perfusion of the liver are carried out using the technique of R. Scholz et al. [Eur. J. Biochem. 38 (1973) 64 to 72]. The perfusion liquid used is Krebs-Henseleit bicarbonate buffer (pH 7.4), which is saturated with an oxygen/carbon dioxide mixture (95/5) and contains 1.6 mmol/liter of L-lactate and 0.2 mmol/liter of pyruvate. The perfusion liquid is pumped into the liver via a cannula inserted into the portal vein. The effluent perfusion liquid is collected via a cannula inserted into the Vena cava. The liver is perfused for about 2 hours. The test compounds are infused for 16 minutes each from the 32nd to the […] after the perfusion in increasing concentrations (0.02 to 1.00 mmol/liter).
Samples of the effluent perfusion liquid are collected at one-minute intervals and analyzed for glucose, lactate and pyruvate (using standard enzymatic methods). The percentages shown in Table VIII relate to the condition occurring before and after the administration of the compounds, the changes caused solely by lactate and pyruvate being set as being equal to 100%.

[9] = Table IV, read-out: TQ (LD50/ED50), antiulcerogenic action
[10] = 30 min fraction, Table VII, read-out: ED50 pancreatic secretion (dose which brings about an increase in pancreatic secretion of a maximum of 50%)
[11] = Table VII, read-out: TQ [LD50/ED50], pancreatic secretion
[12] = 0.2 mmol/liter in the perfusate, Table XIII
[13] = 30 minute fraction, Table X, read-out: ED50 pancreatic secretion (dose which brings about an increase in pancreatic secretion by a maximum of 50%)
[14] = Table X, read-out: TQ LD50/ED50, pancreatic secretion
[15] = TQ LD50/ED25, antihepatotoxic effect, LD50 mouse i.p. / ED25 rat p.o., Table XI
[16] = Table IX, read-out: TQ LD50/ED50, antiulcerogenic action

Row | Compound | ED50 ([1]; Table IV) [mg/kg] | selectivity ratio [2, 9] | LD50 at 336 h ([5]; mouse, Table IV) [mg/kg] | ED25 [6] [mg/kg] | ED50 [3, 13] [mg/kg] | selectivity ratio [4, 14] | ED50 ([1]; Table IX) [mg/kg] | selectivity ratio [2, 16] | LD50 at 336 h ([5]; mouse i.p., Table IX) [mg/kg] | further results
1 | O=C(O)CCCN(C(=O)c1ccc(Cl)cc1)c1ccc(-c2ccccc2)cc1 [Serial No. 23, 4-[p-chloro-N-(biphenyl-4-yl)benzamido]butyric acid] | ~15 | ~8 | 120 | 15 | – | – | – | – | – | ED50 [3, 10]: 1 mg/kg; selectivity ratio [4, 11]: 120; ED50 [6]: 22 mg/kg; selectivity ratio ([7]; TQ LD50/ED25, antihepatotoxic effect, LD50 mouse i.p. / ED25 rat p.o., Table V): 8; selectivity ratio ([7]; TQ LD50/ED50, antihepatotoxic effect, LD50 mouse i.p. / ED50 rat p.o., Table V): 5.5
2 | O=C(O)CCCCCN(C(=O)c1ccc(Cl)cc1Cl)c1ccccc1-c1ccccc1 [Serial No. 29, 6-[2,4-dichloro-N-(biphenyl-2-yl)benzamido]caproic acid] | – | – | – | – | – | – | – | – | – | Glucose formation, % change ([8]; 0.2 mmole/liter in the perfusate, Table VIII): -93%; ED50 inhibition of formation of glucose from lactate and pyruvate ([8]; Table VIII): 23 µg/mL; ED50 [3, 10]: 1.7 mg/kg; selectivity ratio [4, 11]: ~147; LD50 at 336 h ([5]; mouse i.p., Table VII): ~250 mg/kg
3 | O=C(O)CCCCN(C(=O)c1ccccc1O)c1ccccc1-c1ccccc1 [Serial No. 32, 5-[o-hydroxy-N-(biphenyl-2-yl)benzamido]valeric acid] | < 10 | > 20 | > 200 | – | – | – | – | – | – | –
4 | COc1ccc(N(CCCC(=O)O)C(=O)c2ccc(Cl)cc2)cc1-c1ccccc1 [Serial No. 35, 4-[p-chloro-N-(6-methoxybiphenyl-3-yl)benzamido]butyric acid] | < 10 | > 12 | 120 | – | – | – | – | – | – | ED50 [3, 10]: 1.5 mg/kg; selectivity ratio [4, 11]: 80
5 | O=C(O)CCCN(C(=O)c1ccc(Cl)cc1)c1cccc2ccccc12 [Serial No. 38, 4-{p-chloro-[N(α-naphthyl)]benzamido}butyric acid] | – | – | – | ~5 | 2.5 | 56 | – | – | – | Glucose formation, % change [8, 12]: -48%; ED50 inhibition of formation of glucose from lactate and pyruvate ([8]; Table XIII): 81 µg/mL; LD50 at 336 h ([5]; mouse i.p., Table X): 140 mg/kg; ED50 [6]: 40 mg/kg; selectivity ratio [7, 15]: ~28; selectivity ratio ([7]; TQ LD50/ED50, antihepatotoxic effect, LD50 mouse i.p. / ED50 rat p.o., Table XI): 3.5
6 | CCOc1ccc(N(CCCC(=O)O)C(=O)c2ccc(Cl)cc2)c2ccccc12 [Serial No. 43, 4-{p-chloro-[N-(4-ethoxy-1-naphthyl)]benzamido}butyric acid] | – | – | – | – | 0.7 | 100 | 10 | 7 | 70 | –
7 | CC(CCC(=O)O)N(C(=O)c1ccc(Cl)cc1)c1cccc2ccccc12 (stereo not drawn) [Serial No. 45, 4-{p-chloro-[N-(α-naphthyl)]benzamido}valeric acid] | – | – | – | ~15 | ~1 | ~180 | < 10 | > 18 | 180 | selectivity ratio [7, 15]: ~12
8 | O=C(O)CCCCN(C(=O)c1ccc(Cl)cc1)c1cccc2ccccc12 [Serial No. 47, 5-{p-chloro-[N-(α-naphthyl)]benzamido}valeric acid] | – | – | – | – | 2 | 85 | – | – | – | Glucose formation, % change [8, 12]: -86%; ED50 inhibition of formation of glucose from lactate and pyruvate ([8]; Table XIII): 31 µg/mL; LD50 at 336 h ([5]; mouse i.p., Table X): 170 mg/kg
9 | CC1(C)[C@@H](OC(=O)CCC(=O)O)CC[C@]2(C)[C@H]3C(=O)C=C4[C@@H]5C[C@@](C)(C(=O)O)CC[C@]5(C)CC[C@@]4(C)[C@]3(C)CC[C@@H]12 [compound 19] | 50 | 2.4 | 120 | – | – | – | – | – | – | –
10 | CC(C)C(=O)N(CCCCC(=O)O)c1cccc2ccccc12 [compound 51] | – | – | – | – | – | – | < 10 | ~20 | > 200 | –
11 | CCC(=O)N(CCCC(=O)O)C1CCCc2cc(OC)ccc21 (stereo not drawn) [compound 52] | – | – | – | – | < 1 | > 200 | < 10 | > 20 | > 200 | –
12 | O=C(O)CCCN(C(=O)c1ccc(Cl)c(Cl)c1)c1ccc2c(c1)CCC2 [compound 53] | – | – | – | 10 | < 1 | > 180 | < 10 | > 18 | 180 | selectivity ratio [7, 15]: 18
13 | O=C(O)CCCCN(C(=O)c1ccc(Cl)cc1)c1ccc2c(c1)CCC2 [compound 54] | – | – | – | – | – | – | ≥ 10 | ≤ 16 | 160 | –

— US4243678A, “Acylhydrocarbylaminoalkanoic acids, compositions and uses” (Byk Gulden Lomberg Chemische Fabrik GmbH, priority 1977, dated 1981)
